From patent US20100267697A1, “ION CHANNEL MODULATORS” (Wyeth, priority 2006, published 2010)

The compounds below were run against T1, Cav2.2 (Homo sapiens, UniProt Q00975) (assay: HEK assay (whole-cell patch clamp, transiently transfected HEK-293T/17 cells, pulses P1 and P5)). Conditions: fifth pulse (P5) of 5 Hz train, holding potential −100 mV, read-out: HEK Cav2.2 P5 IC50.
T1 construct: expressed in transfected cells; host or cells: HEK-293T/17 (transient, FuGENE 6)
Assay type: cell-based
Summary of the method: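 Whole-cell voltage clamp of HEK-293T/17 cells transiently transfected via FuGENE 6, then grown 24 h in 1% serum before recording. From −100 mV holding, trains of five 20–30 ms steps to about +10 mV at 5 Hz, repeated every 30 s; steady-state IC50s taken at first (P1) and fifth (P5) pulses to gauge use-dependent block.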

T1 sequence (Q00975 whole entry): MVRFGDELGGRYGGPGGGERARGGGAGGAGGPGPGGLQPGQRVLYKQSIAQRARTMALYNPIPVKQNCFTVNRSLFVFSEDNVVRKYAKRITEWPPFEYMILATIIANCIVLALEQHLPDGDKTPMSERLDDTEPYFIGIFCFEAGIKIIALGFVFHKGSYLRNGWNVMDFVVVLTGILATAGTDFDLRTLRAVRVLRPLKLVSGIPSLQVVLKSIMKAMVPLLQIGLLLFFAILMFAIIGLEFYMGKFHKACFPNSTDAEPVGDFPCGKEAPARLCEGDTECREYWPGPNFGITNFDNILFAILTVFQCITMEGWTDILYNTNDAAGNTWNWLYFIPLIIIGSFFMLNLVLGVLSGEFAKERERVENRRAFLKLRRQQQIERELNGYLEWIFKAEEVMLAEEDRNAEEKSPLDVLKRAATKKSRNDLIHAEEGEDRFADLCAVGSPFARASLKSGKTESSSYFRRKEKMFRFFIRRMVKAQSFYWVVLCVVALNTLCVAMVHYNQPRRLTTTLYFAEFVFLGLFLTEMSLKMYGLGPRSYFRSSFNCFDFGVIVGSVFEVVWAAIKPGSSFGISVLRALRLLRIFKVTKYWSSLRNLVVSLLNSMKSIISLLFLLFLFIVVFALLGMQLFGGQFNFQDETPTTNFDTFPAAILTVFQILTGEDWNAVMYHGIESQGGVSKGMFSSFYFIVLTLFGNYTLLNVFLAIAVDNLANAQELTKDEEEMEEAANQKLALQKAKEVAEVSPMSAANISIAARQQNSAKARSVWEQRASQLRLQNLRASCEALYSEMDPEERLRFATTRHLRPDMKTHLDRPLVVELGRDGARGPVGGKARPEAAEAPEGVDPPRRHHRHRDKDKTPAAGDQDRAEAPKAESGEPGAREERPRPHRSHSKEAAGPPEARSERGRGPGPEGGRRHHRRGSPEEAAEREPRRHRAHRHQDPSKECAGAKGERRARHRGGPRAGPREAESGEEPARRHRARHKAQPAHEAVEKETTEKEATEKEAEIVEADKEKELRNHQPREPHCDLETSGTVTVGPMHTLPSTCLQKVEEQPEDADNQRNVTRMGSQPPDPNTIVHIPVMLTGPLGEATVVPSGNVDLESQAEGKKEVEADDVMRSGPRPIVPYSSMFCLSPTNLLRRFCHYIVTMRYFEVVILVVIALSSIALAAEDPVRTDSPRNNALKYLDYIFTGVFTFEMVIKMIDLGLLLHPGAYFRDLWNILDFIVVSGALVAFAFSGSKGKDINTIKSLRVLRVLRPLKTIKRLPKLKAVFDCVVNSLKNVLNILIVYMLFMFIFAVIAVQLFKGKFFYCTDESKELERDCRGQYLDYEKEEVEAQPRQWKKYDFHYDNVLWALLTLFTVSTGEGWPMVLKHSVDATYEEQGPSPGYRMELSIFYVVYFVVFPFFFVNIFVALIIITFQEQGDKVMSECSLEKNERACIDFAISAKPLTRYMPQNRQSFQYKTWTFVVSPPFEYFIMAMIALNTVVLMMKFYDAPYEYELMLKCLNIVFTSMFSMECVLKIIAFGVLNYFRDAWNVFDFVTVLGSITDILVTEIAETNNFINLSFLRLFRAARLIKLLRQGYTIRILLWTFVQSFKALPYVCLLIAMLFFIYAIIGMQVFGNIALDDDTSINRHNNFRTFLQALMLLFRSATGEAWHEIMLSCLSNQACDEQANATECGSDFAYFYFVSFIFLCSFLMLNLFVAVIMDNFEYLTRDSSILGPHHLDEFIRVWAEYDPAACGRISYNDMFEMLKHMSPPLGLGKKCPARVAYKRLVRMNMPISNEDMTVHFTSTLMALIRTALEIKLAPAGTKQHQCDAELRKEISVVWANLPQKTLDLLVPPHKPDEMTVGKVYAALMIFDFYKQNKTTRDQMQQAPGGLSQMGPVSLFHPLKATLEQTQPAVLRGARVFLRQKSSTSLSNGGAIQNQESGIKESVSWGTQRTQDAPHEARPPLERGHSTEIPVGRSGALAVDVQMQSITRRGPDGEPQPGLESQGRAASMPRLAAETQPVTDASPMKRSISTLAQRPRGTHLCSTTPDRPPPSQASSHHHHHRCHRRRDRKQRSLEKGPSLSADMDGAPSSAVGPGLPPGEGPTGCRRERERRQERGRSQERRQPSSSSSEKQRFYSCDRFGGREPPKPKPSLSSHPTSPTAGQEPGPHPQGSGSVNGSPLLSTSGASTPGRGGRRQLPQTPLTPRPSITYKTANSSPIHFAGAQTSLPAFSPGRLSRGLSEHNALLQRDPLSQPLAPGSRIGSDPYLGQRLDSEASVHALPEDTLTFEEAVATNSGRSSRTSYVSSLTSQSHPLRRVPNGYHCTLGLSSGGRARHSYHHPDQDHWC
T1 sequence (P54284 whole entry partner): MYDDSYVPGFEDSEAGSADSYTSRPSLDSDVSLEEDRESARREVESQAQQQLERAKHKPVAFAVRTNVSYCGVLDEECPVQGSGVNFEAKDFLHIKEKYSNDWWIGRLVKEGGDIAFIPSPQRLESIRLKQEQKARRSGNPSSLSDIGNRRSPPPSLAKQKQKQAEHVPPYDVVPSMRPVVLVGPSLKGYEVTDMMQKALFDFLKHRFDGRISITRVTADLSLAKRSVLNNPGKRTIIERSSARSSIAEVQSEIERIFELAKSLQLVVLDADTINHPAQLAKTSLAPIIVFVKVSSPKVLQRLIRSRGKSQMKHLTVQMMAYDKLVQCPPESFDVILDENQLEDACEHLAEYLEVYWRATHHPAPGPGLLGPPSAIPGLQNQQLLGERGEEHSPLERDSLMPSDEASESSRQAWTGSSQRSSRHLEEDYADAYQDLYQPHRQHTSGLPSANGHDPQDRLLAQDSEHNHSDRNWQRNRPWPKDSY
T1 sequence (P54289 25-946 partner limits assumed): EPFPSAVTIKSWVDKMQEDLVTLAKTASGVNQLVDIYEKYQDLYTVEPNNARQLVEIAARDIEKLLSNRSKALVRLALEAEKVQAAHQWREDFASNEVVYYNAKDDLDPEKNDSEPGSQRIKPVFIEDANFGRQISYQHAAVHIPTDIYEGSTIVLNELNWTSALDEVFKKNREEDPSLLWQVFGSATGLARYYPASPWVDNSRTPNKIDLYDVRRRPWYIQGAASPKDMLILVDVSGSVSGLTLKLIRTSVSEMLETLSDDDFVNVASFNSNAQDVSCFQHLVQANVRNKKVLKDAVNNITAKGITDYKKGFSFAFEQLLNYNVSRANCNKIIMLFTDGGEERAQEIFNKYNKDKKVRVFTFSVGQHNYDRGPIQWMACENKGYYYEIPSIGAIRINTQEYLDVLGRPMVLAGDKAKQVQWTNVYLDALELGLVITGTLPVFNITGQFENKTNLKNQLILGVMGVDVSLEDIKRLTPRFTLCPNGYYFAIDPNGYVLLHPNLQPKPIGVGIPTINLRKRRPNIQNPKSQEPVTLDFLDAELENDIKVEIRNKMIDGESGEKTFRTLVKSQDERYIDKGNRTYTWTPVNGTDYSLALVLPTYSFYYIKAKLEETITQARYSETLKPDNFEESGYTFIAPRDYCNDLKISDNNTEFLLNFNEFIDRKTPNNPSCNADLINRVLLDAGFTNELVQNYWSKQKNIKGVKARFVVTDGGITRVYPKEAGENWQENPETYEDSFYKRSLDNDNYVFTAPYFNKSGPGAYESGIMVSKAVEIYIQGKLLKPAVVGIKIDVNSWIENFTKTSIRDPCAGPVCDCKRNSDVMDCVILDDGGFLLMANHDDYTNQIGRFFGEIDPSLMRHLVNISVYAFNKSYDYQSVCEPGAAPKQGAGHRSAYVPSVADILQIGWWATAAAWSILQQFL
T1 sequence (P54289 947-1103 partner limits assumed): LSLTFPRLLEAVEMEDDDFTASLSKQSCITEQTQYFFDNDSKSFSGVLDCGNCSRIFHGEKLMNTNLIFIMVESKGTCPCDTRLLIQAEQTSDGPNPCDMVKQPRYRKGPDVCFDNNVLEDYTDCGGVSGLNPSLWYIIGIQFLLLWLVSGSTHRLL

| IC50 | SMILES |
| --- | --- |
| 0.6 µM | CCN(CC)c1ccc(CN(C(=O)CCC(C)C)c2ccc(N(C)C)cc2)cc1 [Compound 91, 4-Methyl-pentanoic acid (4-Diethylaminobenzyl)-(4-dimethylamino-phenyl)-amide] |
| 12.8 µM | CC(C)(C)C(=O)N(Cc1ccc(N2CC[C@H](O)C2)nc1)c1ccc(F)cc1 [Compound 51, N-(4-Fluorophenyl)-N-[6-(3-hydroxy-pyrrolidin-1-yl)-pyridin-3-ylmethyl]-2,2-dimethyl-propionamide] |

Same assay, conditions: first pulse (P1) of 5 Hz train, holding potential −100 mV, read-out: HEK Cav2.2 P1 IC50

| IC50 | SMILES |
| --- | --- |
| 1 µM | CCN(CC)c1ccc(CN(C(=O)CCC(C)C)c2ccc(N(C)C)cc2)cc1 [Compound 91, 4-Methyl-pentanoic acid (4-Diethylaminobenzyl)-(4-dimethylamino-phenyl)-amide] |
| 34 µM | CC(C)(C)C(=O)N(Cc1ccc(N2CC[C@H](O)C2)nc1)c1ccc(F)cc1 [Compound 51, N-(4-Fluorophenyl)-N-[6-(3-hydroxy-pyrrolidin-1-yl)-pyridin-3-ylmethyl]-2,2-dimethyl-propionamide] |

What follows are compounds tested against T2, human Cav2.2 (composed of the subunits α1, β3 and α2δ) (Homo sapiens, UniProt Q00975) (assay: FLIPR assay (TSA201 cells stably transfected with human Cav2.2 and human Kir2.3, FLUO-4 Ca2+ signal, KCl depolarization)). Conditions: 70 mM KCl depolarization, average value.
T2 construct: expressed in transfected cells
Assay type: cell-based
Procedure: TSA201 cells stably transfected with human Cav2.2 (composed of the subunits α1, β3 and α2δ) and human Kir2.3 to enhance the FLIPR Ca^2+ signal were used. These cells were plated on 384-well collagen-coated plates (BD Bioscience, Franklin Lakes, N.J.) at a density of 2×10^4 cells/well one day prior to the FLIPR assay. […] Culture media is removed and replaced with 25 μl of the FLUO-4 dye solution and incubated for one hour at room temperature. The cell plate is then placed on the FLIPR where the dye is aspirated off and replaced with 25 μl of HBSS (Invitrogen, Carlsbad, Calif.). The HBSS is then aspirated and replaced with […] of compound which is diluted in HBSS with 1% DMSO. Compounds are incubated on the cells for 15 minutes. The cells are then depolarized with 25 μl of 140 mM KCl solution (also containing 2 mM CaCl2 and 10 mM HEPES). The final concentration of KCl on the cells is 70 mM.

T2 sequence (Q00975 whole entry): as the sequence (Q00975 whole entry) above
T2 sequence (P54284 whole entry partner): as the sequence (P54284 whole entry partner) above
T2 sequence (P54289 25-946 partner limits assumed): as the sequence (P54289 25-946 partner limits assumed) above
T2 sequence (P54289 947-1103 partner limits assumed): as the sequence (P54289 947-1103 partner limits assumed) above

| SMILES | IC50 |
| --- | --- |
| CC(=O)N(Cc1csc(Br)n1)c1ccc(F)cc1 [Compound 214, N-[(2-bromo-1,3-thiazol-4-yl)methyl]-N-(4-fluorophenyl)acetamide] | 48.7 µM |
| CN(CCO)c1ccc(CN(C(=O)C(C)(C)C)c2ccc(F)cc2)cn1 [Compound 130, N-(4-fluorophenyl)-N-({6-[(2-hydroxyethyl)(methyl)amino]pyridin-3-yl}methyl)-2,2-dimethylpropanamide] | 14.8 µM |
| CN(C)CCCCNc1nc(CN(C(=O)C(C)(C)C)c2ccc(F)cc2)cs1 [Compound 155, N-[(2-{[4-(dimethylamino)butyl]amino}-1,3-thiazol-4-yl)methyl]-N-(4-fluorophenyl)-2,2-dimethylpropanamide] | 8.5 µM |
| CC(C)(C)C(=O)N(Cc1csc(Nc2ccccc2F)n1)c1ccc(F)cc1 [Compound 159, N-(4-fluorophenyl)-N-({2-[(2-fluorophenyl)amino]-1,3-thiazol-4-yl}methyl)-2,2-dimethylpropanamide] | 10.2 µM |
| CCN(c1nc(CN(C(=O)[C@H]2CCCN2)c2ccc(F)cc2)cs1)C1CC1 [Compound 123, N-({2-[cyclopropyl(ethyl)amino]-1,3-thiazol-4-yl}methyl)-N-(4-fluorophenyl)-D-prolinamide] | 10.2 µM |
| CC(=O)N(Cc1ccc(N2CCCC(CO)C2)nc1)c1ccc(F)cc1 (centres unmarked) [Compound 234, N-(4-fluorophenyl)-N-({6-[3-(hydroxymethyl)piperidin-1-yl]pyridin-3-yl}methyl)acetamide] | 13.9 µM |
| CC(=O)N(Cc1csc(N2CCOCC2)n1)c1ccc(F)cc1 [Compound 218, N-(4-fluorophenyl)-N-[(2-morpholin-4-yl-1,3-thiaozl-4-yl)methyl]acetamide] | 23.4 µM |
| CN1CCN(c2ccc(CN(C(=O)[C@H]3CCN(C(=O)C(C)(C)C)C3)c3ccc(F)cc3)cn2)CC1 [Compound 260, (3S)-1-(2,2-dimethylpropanoyl)-N-(4-fluorophenyl)-N-{[6-(4-methylpiperazin-1-yl)pyridin-3-yl]methyl}pyrrolidine-3-carboxamide] | 47.3 µM |
| CC(C)(C)C(=O)N(Cc1csc(N2CCC(O)CC2)n1)c1ccc(F)cc1 [Compound 182, N-(4-fluorophenyl)-N-{[2-(4-hydroxypiperidin-1-yl)-1,3-thiazol-4-yl]methyl}-2,2-dimethylpropanamide] | 8.1 µM |
| CC1CN(c2nc(CN(C(=O)C(C)(C)C)c3ccc(F)cc3)cs2)CC(C)N1 (centres unmarked) [Compound 145, N-{[2-(3,5-dimethylpiperazin-1-yl)-1,3-thiazol-4-yl]methyl}-N-(4-fluorophenyl)-2,2-dimethylpropanamide] | 18.5 µM |
| CCN(c1ccc(CN(C(=O)[C@@H]2CCCN2)c2ccc(OC)cc2)cc1)C1CC1 [Compound 117, N-{4-[cyclopropyl(ethyl)amino]benzyl}-N-(4-methoxyphenyl)-L-prolinamide] | 9.7 µM |
| CC(=O)N(Cc1ccc(N(C)CCO)nc1)c1ccc(F)cc1 [Compound 230, N-(4-fluorophenyl)-N-({6-[(2-hydroxyethyl)(methyl)amino]pyridin-3-yl}methyl)acetamide] | 45.3 µM |
| CN1CCN(c2ccc(CN(C(=O)[C@H]3CCN(C(=O)OC(C)(C)C)C3)c3ccc(F)cc3)cn2)CC1 [Compound 256, tert-butyl (3S)-3-[(4-fluorophenyl){[6-(4-methylpiperazin-1-yl)pyridin-3-yl]methyl}carbamoyl]pyrrolidine-1-carboxylate] | 12.6 µM |
| CCC(C)(C)C(=O)N(Cc1csc(N2CCOCC2)n1)c1ccc(F)cc1 [Compound 138, N-(4-fluorophenyl)-2,2-dimethyl-N-[(2-morpholin-4-yl-1,3-thiazol-4-yl)methyl]butanamide] | 14.5 µM |
| CC(=O)N(Cc1ccc(N2CCC(CO)CC2)nc1)c1ccc(F)cc1 [Compound 233, N-(4-fluorophenyl)-N-({6-[4-(hydroxymethyl)piperidin-1-yl]pyridin-3-yl}methyl)acetamide] | 22.2 µM |
| CCN(c1nc(CN(C(C)=O)c2ccc(F)cc2)cs1)C1CC1 [Compound 210, N-({2-[cyclopropyl(ethyl)amino]-1,3-thiazol-4-yl}methyl)-N-(4-fluorophenyl)acetamide] | 9.1 µM |
| CN1CCN(c2nc(CN(C(=O)C(C)(C)C)c3ccc(F)cc3)cs2)CC1 [Compound 150, N-(4-fluorophenyl)-2,2-dimethyl-N-{[2-(4-methylpiperazin-1-yl)-1,3-thiazol-4-yl]methyl}propanamide] | 10.6 µM |
| CCN(CC)c1ccc(CN(C(C)=O)c2ccc(F)cc2)cn1 [Compound 228, N-{[6-(diethylamino)pyridin-3-yl]methyl}-N-(4-fluorophenyl)acetamide] | 12.6 µM |
| CN1CCN(c2ccc(CN(C(=O)[C@@H]3CCN(C(=O)OC(C)(C)C)C3)c3ccc(F)cc3)cn2)CC1 [Compound 257, tert-butyl (3R)-3-[(4-fluorophenyl){[6-(4-methylpiperazin-1-yl)pyridin-3-yl]methyl}carbamoyl]pyrrolidine-1-carboxylate] | 22.9 µM |

Further lines, results first:

| IC50 | SMILES |
| --- | --- |
| 7.9 µM | CC(C)(C)C(=O)N(Cc1csc(-c2ccccc2F)n1)c1ccc(F)cc1 [Compound 249, N-(4-fluorophenyl)-N-{[2-(2-fluorophenyl)-1,3-thiazol-4-yl]methyl}-2,2-dimethylpropanamide] |
| 6.7 µM | CC(C)(C)C(=O)N(Cc1csc(-c2ccc(C(F)(F)F)cc2)n1)c1ccc(F)cc1 [Compound 241, N-(4-fluorophenyl)-2,2-dimethyl-N-({2-[4-(trifluoromethyl)phenyl]-1,3-thiazol-4-yl}methyl)propanamide] |
| 6.5 µM | CCN(c1nc(CN(C(=O)C(C)(C)C)c2ccccc2C)cs1)C1CC1 [Compound 171, N-({2-[cyclopropyl(ethyl)amino]-1,3-thiazol-4-yl}methyl)-2,2-dimethyl-N-(2-methylphenyl)propanamide] |
| 4.4 µM | CC(C)(C)C(=O)N(Cc1csc(N2CCCC2)n1)c1ccc(F)cc1 [Compound 140, N-(4-fluorophenyl)-2,2-dimethyl-N-[(2-pyrrolidin-1-yl-1,3-thiazol-4-yl)methyl]propanamide] |
| 3.9 µM | CC(C)(C)C(=O)N(Cc1csc(N(c2ccccc2)c2ccccc2)n1)c1ccc(F)cc1 [Compound 179, N-{[2-(diphenylamino)-1,3-thiazol-4-yl]methyl}-N-(4-fluorophenyl)-2,2-dimethylpropanamide] |
| 3.8 µM | CCN(c1nc(CN(C(=O)C(C)(C)C)c2ccccc2OC)cs1)C1CC1 [Compound 174, N-({2-[cyclopropyl(ethyl)amino]-1,3-thiazol-4-yl}methyl)-N-(2-methoxyphenyl)-2,2-dimethylpropanamide] |
| 3.8 µM | CC(C)(C)C(=O)N(Cc1csc(N2CCC(C#N)CC2)n1)c1ccc(F)cc1 [Compound 188, N-{[2-(4-cyanopiperidin-1-yl)-1,3-thiazol-4-yl]methyl}-N-(4-fluorophenyl)-2,2-dimethylpropanamide] |
| 3.2 µM | CC(C)(C)C(=O)N(Cc1cnc(N2CCCCC2)s1)c1ccc(F)cc1 [Compound 194, N-(4-fluorophenyl)-2,2-dimethyl-N-[(2-piperidin-1-yl-1,3-thiazol-5-yl)methyl]propanamide] |
| 3.1 µM | CC(C)(C)C(=O)N(Cc1csc(N2CCC(c3ccccc3)CC2)n1)c1ccc(F)cc1 [Compound 193, N-(4-fluorophenyl)-2,2-dimethyl-N-{[2-(4-phenylpiperidin-1-yl)-1,3-thiazol-4-yl]methyl}propanamide] |
| 2.2 µM | CC1CC(C)CN(c2nc(CN(C(=O)C(C)(C)C)c3ccc(F)cc3)cs2)C1 (centres unmarked) [Compound 190, N-{[2-(3,5-dimethylpiperidin-1-yl)-1,3-thiazol-4-yl]methyl}-N-(4-fluorophenyl)-2,2-dimethylpropanamide] |
| 1.9 µM | CC1CCN(c2nc(CN(C(=O)C(C)(C)C)c3ccc(F)cc3)cs2)CC1 [Compound 192, N-(4-fluorophenyl)-2,2-dimethyl-N-{[2-(4-methylpiperidin-1-yl)-1,3-thiazol-4-yl]methyl}propanamide] |
| 1.3 µM | CCN(c1ccc(CN(C(=O)C(C)(C)C)c2ccc(F)cc2)cn1)C1CC1 [Compound 139, N-({6-[cyclopropyl(ethyl)amino]pyridin-3-yl}methyl)-N-(4-fluorophenyl)-2,2-dimethylpropanamide] |
